In ChEMBL document CHEMBL1201862, “PubChem BioAssay data set” (2004):
The source made the active and inactive calls.

Key:
[1] = P. falciparum late gametocyte killing, dose response, luminescence (AID 1117278); type: functional, cell-based;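 note: gametocytes exposed to compound for 24 hours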
[2] = Jurkat T cell cytotoxicity, dose response, cytotoxicity control for P. falciparum gametocyte viability project, luminescence (AID 1117277); type: functional, cell-based;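 note: potency reflects loss of cellular ATP meaning fewer viable cells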
[3] = biological target: T1, Bcl-2-related protein A1 (Mus musculus, UniProt Q07440); experiment: Bfl-1 inhibitors blocking BH3 peptide binding, confirmation, biochemical, TR-FRET, mouse Bfl-1 (AID 621);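 note: TR-FRET binding of GST-Bfl-1 to FITC-labelled Bid peptide via terbium antibody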
T1 sequence (Q07440 whole entry): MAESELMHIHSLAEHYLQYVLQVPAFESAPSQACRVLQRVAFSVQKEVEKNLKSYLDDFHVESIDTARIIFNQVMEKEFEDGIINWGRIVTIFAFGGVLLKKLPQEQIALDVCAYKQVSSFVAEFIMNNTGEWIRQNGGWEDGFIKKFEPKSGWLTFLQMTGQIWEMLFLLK

[4] = biological target: T1, Bcl-2-related protein A1; experiment: Bfl-1 inhibitors, primary screen, biochemical, fluorescence polarization, FITC-Bid, mouse (AID 432)
[5] = biological target: Bifunctional protein GlmU (Mycobacterium tuberculosis, UniProt P9WMN3); experiment: Inhibitors of Mycobacterial Glucosamine-1-phosphate acetyl transferase (GlmU). Secondary screen.; design: species or system Mycobacterium tuberculosis H37Rv
[6] = biological target: Sphingosine 1-phosphate receptor 2 (Homo sapiens, UniProt O95136); experiment: Dose Response Cell Based Assay for Antagonists of the S1P2 Receptor. [Related pubchem assays: 856, 736 ]; type: functional
[7] = biological target: T2, Replicative DNA helicase DnaB (Mycobacterium tuberculosis, UniProt P9WMR3); experiment: DnaB intein splicing inhibitors, dose response, biochemical, cell-free fluorescence (AID 449749); type: functional
T2 sequence (P9WMR3 whole entry): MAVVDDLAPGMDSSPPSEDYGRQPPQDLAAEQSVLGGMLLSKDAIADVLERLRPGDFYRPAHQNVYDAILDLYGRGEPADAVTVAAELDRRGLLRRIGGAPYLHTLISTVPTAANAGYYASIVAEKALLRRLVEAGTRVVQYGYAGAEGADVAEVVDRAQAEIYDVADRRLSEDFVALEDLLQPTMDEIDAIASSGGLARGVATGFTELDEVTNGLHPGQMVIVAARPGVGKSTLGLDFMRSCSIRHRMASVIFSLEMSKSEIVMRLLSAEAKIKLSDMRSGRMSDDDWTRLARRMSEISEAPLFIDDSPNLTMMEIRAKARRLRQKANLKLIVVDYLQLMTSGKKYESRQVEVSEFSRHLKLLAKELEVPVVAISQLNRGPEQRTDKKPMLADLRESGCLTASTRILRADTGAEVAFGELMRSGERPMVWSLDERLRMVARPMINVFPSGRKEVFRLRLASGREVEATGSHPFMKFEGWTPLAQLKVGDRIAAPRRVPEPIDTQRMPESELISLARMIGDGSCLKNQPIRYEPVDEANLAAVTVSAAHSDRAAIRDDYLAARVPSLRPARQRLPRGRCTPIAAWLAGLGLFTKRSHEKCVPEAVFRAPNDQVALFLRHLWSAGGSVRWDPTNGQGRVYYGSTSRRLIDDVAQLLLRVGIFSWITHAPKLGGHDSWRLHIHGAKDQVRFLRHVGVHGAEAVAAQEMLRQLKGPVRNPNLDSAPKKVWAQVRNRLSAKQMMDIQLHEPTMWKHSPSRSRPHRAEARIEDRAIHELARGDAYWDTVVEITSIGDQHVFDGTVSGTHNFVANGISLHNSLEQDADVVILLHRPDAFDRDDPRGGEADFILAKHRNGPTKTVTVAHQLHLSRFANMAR

[8] = biological target: Prothrombin (Homo sapiens, UniProt P00734); experiment: Thrombin 1536 HTS Dose Response Confirmation. [Related pubchem assays: 1046 (Thrombin 1536 HTS; hits were confirmed in this assay)]; type: functional
[9] = biological target: Cytochrome P450 2C19 (Homo sapiens, UniProt P33261); experiment: Cytochrome panel assay with activity outcomes. Panel member name: p450-cyp2c19 Compounds with AC50 equal or less than 10 uM are considered active; type: functional; settings: read-out: AC50
[10] = biological target: T3, Protein RecA (Mycobacterium tuberculosis, UniProt P9WHJ3); experiment: Fluorescence Cell-Free Homogeneous Dose Retest to Identify Inhibitors of RecA-Intein Splicing Activity. [Related pubchem assays (depositor defined):AID2097, AID2223, AID489010, AID492950]; type: functional
T3 sequence (P9WHJ3 whole entry): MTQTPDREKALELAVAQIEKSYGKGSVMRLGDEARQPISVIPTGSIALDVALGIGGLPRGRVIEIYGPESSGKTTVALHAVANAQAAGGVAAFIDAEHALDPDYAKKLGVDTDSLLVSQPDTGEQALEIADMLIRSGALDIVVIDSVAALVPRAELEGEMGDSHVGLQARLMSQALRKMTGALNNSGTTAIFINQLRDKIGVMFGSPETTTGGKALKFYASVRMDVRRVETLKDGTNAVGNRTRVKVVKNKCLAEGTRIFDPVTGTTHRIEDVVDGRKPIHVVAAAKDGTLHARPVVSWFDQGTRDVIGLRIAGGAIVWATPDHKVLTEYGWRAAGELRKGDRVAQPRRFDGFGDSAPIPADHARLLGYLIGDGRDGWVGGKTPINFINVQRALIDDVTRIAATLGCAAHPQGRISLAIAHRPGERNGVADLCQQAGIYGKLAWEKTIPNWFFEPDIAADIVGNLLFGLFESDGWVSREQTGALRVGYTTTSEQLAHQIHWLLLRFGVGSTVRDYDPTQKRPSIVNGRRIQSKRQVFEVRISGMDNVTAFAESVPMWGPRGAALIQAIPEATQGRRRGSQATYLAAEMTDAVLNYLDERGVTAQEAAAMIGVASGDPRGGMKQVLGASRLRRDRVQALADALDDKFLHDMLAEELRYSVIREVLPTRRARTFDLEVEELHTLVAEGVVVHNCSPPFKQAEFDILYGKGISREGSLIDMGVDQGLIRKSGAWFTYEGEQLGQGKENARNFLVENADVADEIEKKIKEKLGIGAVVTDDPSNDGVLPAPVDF

[11] = biological target: Cytochrome P450 2C9 (Homo sapiens, UniProt P11712)
[12] = tested on: BJ; experiment: cytotoxicity toward BJ-TERT fibroblasts, dose response, cell-based, RAS-independent, luminescence (AID 1933); type: functional; settings: Homo sapiens
[13] = cytotoxicity toward DRD oncogenic fibroblasts, dose response, cell-based, non-viral oncogenic, luminescence (AID 1934); type: functional; settings: Homo sapiens
[14] = tested on: BJ; experiment: cytotoxicity toward Ras-transformed BJeLR fibroblasts, dose response, cell-based, alamar blue fluorescence, cherrypicked samples (AID 2631); type: functional; settings: Homo sapiens;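 note: confirmatory dose-response assay in RAS-dependent BJ fibroblasts engineered with TERT, LT and ST, with cytotoxicity read by fluorescence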
[15] = tested on: BJ; experiment: cytotoxicity toward BJ-TERT-LT-ST fibroblasts, dose response, cell-based, RAS-independent, luminescence (AID 1935); type: functional; settings: Homo sapiens;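 note: BJ fibroblasts immortalized with TERT plus LT and ST oncogenes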
[16] = Luminescence-based dose response cell-based high throughput screening assay for cytotoxic compounds using the IEC-6 intestinal epithelial cell line. [Related pubchem assays: 1858 (Summary AID.), 1825 (Counterscreen.), 1907 (Confirmation screen.)]; type: functional
[17] = insulin promoter down-regulators in MIN6 cells, imaging, high-content screening, mouse beta cells (AID 1628); type: functional
[18] = tested on: BJ; experiment: cells; type: functional, cell-based; settings: Homo sapiens
[19] = biological target: Paired box protein Pax-8 (Homo sapiens, UniProt Q06710); experiment: inhibitors of PAX8-driven TPO luciferase reporter, dose response, RMG-I cells, cherry-pick (AID 687027); type: functional, cell-based;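 note: luciferase reporter driven by Pax8 target thyroperoxidase promoter measured by SteadyGlo luminescence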
[20] = cytotoxicity in MIN6 insulinoma cells, dose response, cytotoxicity control, cell-based, mouse insulinoma (AID 2122); type: functional;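 note: confirmatory high-throughput counterscreen run to flag cytotoxic compounds; mouse MIN-6 beta cells carrying an insulin promoter eGFP reporter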
[21] = tested on: INS1; experiment: beta cell apoptosis inhibitors, cytokine rescue, dose response, luminescence, retest (AID 449756); type: functional, cell-based; settings: Rattus norvegicus;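 note: cell death triggered by IL-1 beta plus TNF-alpha plus IFN-gamma mixture; protective hits raise ATP signal compared with cytokine alone wells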
[22] = biological target: 14-3-3 protein gamma (Homo sapiens, UniProt P61981); experiment: modulators of 14-3-3 gamma client binding – dose response (AID 711); type: functional
[23] = biological target: Mitogen-activated protein kinase 10 (Homo sapiens, UniProt P53779); experiment: Dose response biochemical screening assay for inhibitors of c-Jun N-Terminal Kinase 3 (JNK3). [Related pubchem assays: 746 ]
[24] = biological target: Protein-tyrosine kinase 2-beta (Homo sapiens, UniProt Q14289);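 note: potency of inhibitors of PYK2 kinase phosphorylation of poly-GT substrate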
Chain of Protein-tyrosine kinase 2-beta (Q14289 whole entry): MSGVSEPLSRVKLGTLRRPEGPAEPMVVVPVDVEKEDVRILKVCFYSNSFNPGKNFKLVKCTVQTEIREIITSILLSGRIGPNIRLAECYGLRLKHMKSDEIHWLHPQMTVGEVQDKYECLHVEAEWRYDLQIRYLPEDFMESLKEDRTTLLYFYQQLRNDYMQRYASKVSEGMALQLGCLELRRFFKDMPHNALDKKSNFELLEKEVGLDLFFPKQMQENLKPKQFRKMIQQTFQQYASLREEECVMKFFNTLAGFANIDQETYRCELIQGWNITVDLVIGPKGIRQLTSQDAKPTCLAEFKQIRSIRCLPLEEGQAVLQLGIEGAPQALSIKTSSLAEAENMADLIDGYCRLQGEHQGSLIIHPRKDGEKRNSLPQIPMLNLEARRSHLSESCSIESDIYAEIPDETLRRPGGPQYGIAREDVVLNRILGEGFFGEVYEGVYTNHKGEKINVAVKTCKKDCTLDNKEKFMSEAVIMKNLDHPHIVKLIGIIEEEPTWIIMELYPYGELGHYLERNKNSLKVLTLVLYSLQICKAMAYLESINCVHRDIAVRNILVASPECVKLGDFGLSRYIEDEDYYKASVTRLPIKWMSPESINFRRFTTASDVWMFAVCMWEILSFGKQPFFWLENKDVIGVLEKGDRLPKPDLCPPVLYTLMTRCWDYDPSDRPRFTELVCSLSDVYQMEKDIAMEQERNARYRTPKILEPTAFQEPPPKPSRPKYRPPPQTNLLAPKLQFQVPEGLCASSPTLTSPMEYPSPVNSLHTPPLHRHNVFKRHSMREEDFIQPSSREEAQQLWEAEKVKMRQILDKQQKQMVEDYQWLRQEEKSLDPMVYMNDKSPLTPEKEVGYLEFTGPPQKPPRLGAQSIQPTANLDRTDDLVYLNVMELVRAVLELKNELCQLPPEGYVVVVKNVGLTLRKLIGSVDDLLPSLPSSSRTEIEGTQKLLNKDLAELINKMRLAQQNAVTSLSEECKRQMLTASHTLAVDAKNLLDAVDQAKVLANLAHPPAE

Chain of Sphingosine 1-phosphate receptor 2 (O95136 whole entry): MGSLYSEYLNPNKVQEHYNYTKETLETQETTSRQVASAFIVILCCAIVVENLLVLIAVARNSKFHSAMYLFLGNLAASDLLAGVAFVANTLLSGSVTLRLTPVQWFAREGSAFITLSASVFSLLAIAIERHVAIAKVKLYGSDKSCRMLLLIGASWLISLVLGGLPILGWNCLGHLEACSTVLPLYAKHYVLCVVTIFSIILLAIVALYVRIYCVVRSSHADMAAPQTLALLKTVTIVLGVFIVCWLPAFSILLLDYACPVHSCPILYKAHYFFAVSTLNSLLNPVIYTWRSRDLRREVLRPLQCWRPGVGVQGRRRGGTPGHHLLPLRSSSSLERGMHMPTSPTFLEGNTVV
Chain of 14-3-3 protein gamma (P61981 whole entry): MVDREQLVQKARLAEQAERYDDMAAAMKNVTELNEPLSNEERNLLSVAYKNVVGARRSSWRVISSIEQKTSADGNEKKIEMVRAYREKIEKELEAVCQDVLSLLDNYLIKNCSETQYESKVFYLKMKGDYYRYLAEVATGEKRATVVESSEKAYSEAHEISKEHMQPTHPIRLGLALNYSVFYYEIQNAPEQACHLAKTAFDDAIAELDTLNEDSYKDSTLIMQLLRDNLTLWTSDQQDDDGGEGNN
Chain of Cytochrome P450 2C9 (P11712 whole entry): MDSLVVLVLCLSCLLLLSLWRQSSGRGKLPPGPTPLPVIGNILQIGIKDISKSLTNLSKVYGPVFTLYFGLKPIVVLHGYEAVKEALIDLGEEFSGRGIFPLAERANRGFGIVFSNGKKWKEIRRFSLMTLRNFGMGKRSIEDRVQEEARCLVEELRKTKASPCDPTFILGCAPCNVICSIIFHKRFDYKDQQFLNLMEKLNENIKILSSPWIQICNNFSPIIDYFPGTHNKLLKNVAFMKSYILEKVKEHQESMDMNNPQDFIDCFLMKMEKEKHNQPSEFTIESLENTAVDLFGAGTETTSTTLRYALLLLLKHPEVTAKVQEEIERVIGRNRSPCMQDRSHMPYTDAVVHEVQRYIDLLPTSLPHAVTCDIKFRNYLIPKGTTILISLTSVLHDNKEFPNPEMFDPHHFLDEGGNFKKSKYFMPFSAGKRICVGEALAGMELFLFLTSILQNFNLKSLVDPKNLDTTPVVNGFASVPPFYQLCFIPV
Chain of Bifunctional protein GlmU (P9WMN3 whole entry): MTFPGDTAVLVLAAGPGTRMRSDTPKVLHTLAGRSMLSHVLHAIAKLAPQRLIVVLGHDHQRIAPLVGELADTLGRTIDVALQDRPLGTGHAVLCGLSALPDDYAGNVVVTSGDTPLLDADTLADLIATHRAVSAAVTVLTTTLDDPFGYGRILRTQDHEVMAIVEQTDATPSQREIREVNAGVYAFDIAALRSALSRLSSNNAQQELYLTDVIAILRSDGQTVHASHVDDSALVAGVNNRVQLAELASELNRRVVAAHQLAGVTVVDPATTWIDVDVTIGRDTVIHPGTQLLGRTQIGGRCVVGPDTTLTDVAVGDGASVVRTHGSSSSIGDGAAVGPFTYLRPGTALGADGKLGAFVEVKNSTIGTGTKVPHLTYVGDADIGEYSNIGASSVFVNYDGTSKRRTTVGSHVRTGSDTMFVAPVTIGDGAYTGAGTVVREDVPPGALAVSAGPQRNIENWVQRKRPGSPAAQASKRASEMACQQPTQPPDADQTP
Chain of Cytochrome P450 2C19 (P33261 whole entry): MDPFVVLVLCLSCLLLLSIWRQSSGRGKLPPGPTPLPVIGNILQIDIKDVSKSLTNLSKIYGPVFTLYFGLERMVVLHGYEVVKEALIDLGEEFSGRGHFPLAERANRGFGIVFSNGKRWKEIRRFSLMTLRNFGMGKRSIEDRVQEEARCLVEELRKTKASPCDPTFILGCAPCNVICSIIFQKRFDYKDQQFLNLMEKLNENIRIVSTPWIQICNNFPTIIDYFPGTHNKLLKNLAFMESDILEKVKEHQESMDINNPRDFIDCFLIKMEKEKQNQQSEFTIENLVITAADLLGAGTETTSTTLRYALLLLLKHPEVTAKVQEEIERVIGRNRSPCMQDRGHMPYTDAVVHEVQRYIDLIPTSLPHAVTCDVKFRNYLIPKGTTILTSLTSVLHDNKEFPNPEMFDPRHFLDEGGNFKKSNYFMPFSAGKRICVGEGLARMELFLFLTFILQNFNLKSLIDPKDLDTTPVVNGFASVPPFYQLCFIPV
Chain of Mitogen-activated protein kinase 10 (P53779 whole entry): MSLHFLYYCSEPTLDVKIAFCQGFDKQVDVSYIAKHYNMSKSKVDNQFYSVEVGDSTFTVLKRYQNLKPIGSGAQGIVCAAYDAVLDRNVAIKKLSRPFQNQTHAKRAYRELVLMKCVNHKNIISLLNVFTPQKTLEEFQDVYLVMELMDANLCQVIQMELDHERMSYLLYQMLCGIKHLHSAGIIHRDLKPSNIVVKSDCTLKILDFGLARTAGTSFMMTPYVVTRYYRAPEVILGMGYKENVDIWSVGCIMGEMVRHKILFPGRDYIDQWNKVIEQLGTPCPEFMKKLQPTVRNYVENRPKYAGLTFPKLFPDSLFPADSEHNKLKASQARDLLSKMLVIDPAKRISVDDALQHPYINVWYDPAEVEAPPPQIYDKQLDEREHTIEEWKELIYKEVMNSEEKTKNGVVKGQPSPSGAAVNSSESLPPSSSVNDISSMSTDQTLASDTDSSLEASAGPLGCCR
Chain of Paired box protein Pax-8 (Q06710 whole entry): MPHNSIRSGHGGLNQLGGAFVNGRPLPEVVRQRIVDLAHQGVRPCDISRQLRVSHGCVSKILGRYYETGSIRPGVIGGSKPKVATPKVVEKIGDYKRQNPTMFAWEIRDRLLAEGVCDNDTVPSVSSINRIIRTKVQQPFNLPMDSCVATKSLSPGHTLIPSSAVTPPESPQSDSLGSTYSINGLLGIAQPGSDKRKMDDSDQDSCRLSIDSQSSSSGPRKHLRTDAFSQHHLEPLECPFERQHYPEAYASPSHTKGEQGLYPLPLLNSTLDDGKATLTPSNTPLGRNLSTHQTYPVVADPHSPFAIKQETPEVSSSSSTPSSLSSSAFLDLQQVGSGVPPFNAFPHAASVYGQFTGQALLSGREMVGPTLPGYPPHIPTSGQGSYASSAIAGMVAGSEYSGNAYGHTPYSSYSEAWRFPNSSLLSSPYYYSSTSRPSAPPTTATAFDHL

Cc1nccc(O)c1OCc1ccc(Cl)cc1
IC50 [1]: > 109 µM (inactive)
IC50 [2]: > 83.3 µM (inactive)

Cc1cc(C)c2c3c(c(-c4ccccc4)n2n1)c(=O)n(C)c(=O)n3C
IC50 [3]: > 100 µM (not active)
IC50 [4]: > 100 µM (not active)

Cc1nc(Nc2ccc(C(=O)O)cc2)nc(Nc2ccc(C(=O)O)cc2)c1[N+](=O)[O-]
IC50 [5]: 211 µM (active)

O=C(Nc1ccc(F)cc1)c1sc(-c2ccccc2)nc1C(F)(F)F
IC50 [6]: > 30 µM (not active)

CCOC(=O)CSc1n[nH]c(NC(=O)c2cccc(C(F)(F)F)c2)n1
AC50 [7]: 11.3 µM (active)
IC50 [8]: 0.515 µM (active)
AC50 [9]: 2.51 µM (inconclusive)
EC50 [10]: 12.4 µM (active)
AC50 [11]: 5.01 µM (inconclusive)

CCOc1ccc(C(=O)c2cc([N+](=O)[O-])ccc2N2CCOCC2)cc1
EC50 [12]: 0.406 µM (active)
EC50 [13]: 0.358 µM (active)
EC50 [14]: < 0.104 µM (active)
EC50 [15]: 0.401 µM (inconclusive)
IC50 [16]: 0.0558 µM (active)
IC50 [17]: 0.263 µM (active)
EC50 [18]: 0.632 µM (active)
AC50 [19]: < 0.26 µM (active)
IC50 [20]: < 0.25 µM (active)
AC50 [21]: 0.775 µM (active)

CN1C(=O)C(Cc2c[nH]c3ccccc23)C(=O)N(C)C1=O
IC50 [22]: > 50 µM (not active)

CC(=O)Oc1ccc(C(=O)Nc2nccs2)cc1
IC50 [23]: > 31 µM (not active)

O=C(Oc1ccccc1)c1c(Cl)cccc1P(=O)(O)O
IC50 [24]: 6.43 µM (active)
